Tests used:
Assay in all cases: relative viability (nuclei count vs DMSO), 5 days (fraction); higher = more cells survive
Dasatinib + Alpelisib = compound: Cc1nc(Nc2ncc(C(=O)Nc3c(C)cccc3Cl)s2)cc(N2CCN(CCO)CC2)n1 [Dasatinib] + Cc1nc(NC(=O)N2CCC[C@H]2C(N)=O)sc1-c1ccnc(C(C)(C)C(F)(F)F)c1 [Alpelisib] (partner 2 µM)
Outline: (§1)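 Lung cancer cell lines, seeded in 1536-well plates, were treated the following day by pin tool with a single drug or with five library-drug doses (not always all listed) in √10 steps on top of a fixed anchor-drug dose. Cells were fixed and nuclei stained in one step after 5 days, and nuclei were counted. Relative viability is the nuclei count for treated wells divided by that for vehicle wells, reported as medians of duplicate plates.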

Dasatinib + Crizotinib = compound: Cc1nc(Nc2ncc(C(=O)Nc3c(C)cccc3Cl)s2)cc(N2CCN(CCO)CC2)n1 [Dasatinib] + C[C@@H](Oc1cc(-c2cnn(C3CCNCC3)c2)cnc1N)c1c(Cl)ccc(F)c1Cl [Crizotinib] (partner 1 µM)
Outline: as §1

XMD13-2 + Alpelisib = compound: C1CC1C(=O)NC2=NNC3=C2C=CC(=C3)C4=CC(=CC=C4)C(=O)NC5CC5 [XMD13-2] + Cc1nc(NC(=O)N2CCC[C@H]2C(N)=O)sc1-c1ccnc(C(C)(C)C(F)(F)F)c1 [Alpelisib] (partner 2 µM)
Outline: as §1

Dasatinib + Palbociclib = compound: Cc1nc(Nc2ncc(C(=O)Nc3c(C)cccc3Cl)s2)cc(N2CCN(CCO)CC2)n1 [Dasatinib] + CC(=O)c1c(C)c2cnc(Nc3ccc(N4CCNCC4)cn3)nc2n(C2CCCC2)c1=O [Palbociclib] (partner 0.5 µM)
Outline: as §1

In the case of UMC-11, the relative viability (Dasatinib + Alpelisib; first compound 0.005 µM) is reported as 0.988, the relative viability (Dasatinib + Alpelisib; first compound 0.01581 µM) is reported as 0.768 and the relative viability (Dasatinib + Alpelisib; first compound 0.05 µM) is reported as 0.752. It also gave a relative viability (Dasatinib + Alpelisib; first compound 0.1581 µM) of 0.347, a relative viability (Dasatinib + Alpelisib; first compound 0.5 µM) of 0.264 and a relative viability (Dasatinib + Crizotinib; first compound 0.005 µM) of 0.537. The relative viability (Dasatinib + Crizotinib; first compound 0.01581 µM) was 0.389, the relative viability (Dasatinib + Crizotinib; first compound 0.05 µM) was 0.359 and the relative viability (Dasatinib + Crizotinib; first compound 0.1581 µM) was 0.258. The relative viability (Dasatinib + Crizotinib; first compound 0.5 µM) was 0.242, the relative viability (XMD13-2 + Alpelisib; first compound 0.05 µM) was 1.22 and the relative viability (XMD13-2 + Alpelisib; first compound 0.1581 µM) was 1.07. It also gave a relative viability (XMD13-2 + Alpelisib; first compound 0.5 µM) of 0.944, a relative viability (XMD13-2 + Alpelisib; first compound 1.581 µM) of 0.924 and a relative viability (XMD13-2 + Alpelisib; first compound 5 µM) of 1.13. The relative viability (Dasatinib + Palbociclib; first compound 0.005 µM) was 0.335, the relative viability (Dasatinib + Palbociclib; first compound 0.01581 µM) was 0.278 and the relative viability (Dasatinib + Palbociclib; first compound 0.05 µM) was 0.27. The relative viability (Dasatinib + Palbociclib; first compound 0.1581 µM) was 0.236 and the relative viability (Dasatinib + Palbociclib; first compound 0.5 µM) was 0.188.

— the supplement of paper PMC10307832
